Results on seven molecules are retold here after paper PMC4146677 (Bioorganic & medicinal chemistry letters, 2014).

For one series, the system named is LS P. berghei. As to the kind of experiment: Liver stage P. berghei infection of Huh7 hepatoma cells. It counts as cell-based, Plasmodium berghei. The following applies: for Effect on P. berghei infection of Huh7 cells: 48 h treatment, Fig. 1.
Series [1] addresses T1, PfFabG (Plasmodium falciparum, UniProt Q8I2S7). As to the kind of experiment: PfFabG enzyme inhibition assay. It is filed as biochemical, P. falciparum.
The subject of a further series is L6 cells. The note with it: cited from earlier work.
For series [2] the following is noted: ref [6]; cited from earlier work.
In another series the test system is Leishmania donovani. The note with it: read-out: EC50 against Leishmania donovani; ref [4]; cited from earlier work.
Another series deals with zebrafish larvae liver. As to the kind of experiment: Hepatotoxicity in zebrafish larvae. It is filed as in vivo, zebrafish (Danio rerio). The note with it: 6 dpf; for Hepatotoxic effects / liver phenotype at the MTC: 2-HDA 0.8 μM, 2-ODA 1 μM, 2-TDA 1.2 μM.
For series [3], the target named is T2, PfFabI (Plasmodium falciparum, UniProt Q9BH77).
T2 sequence (Q9BH77 22-432): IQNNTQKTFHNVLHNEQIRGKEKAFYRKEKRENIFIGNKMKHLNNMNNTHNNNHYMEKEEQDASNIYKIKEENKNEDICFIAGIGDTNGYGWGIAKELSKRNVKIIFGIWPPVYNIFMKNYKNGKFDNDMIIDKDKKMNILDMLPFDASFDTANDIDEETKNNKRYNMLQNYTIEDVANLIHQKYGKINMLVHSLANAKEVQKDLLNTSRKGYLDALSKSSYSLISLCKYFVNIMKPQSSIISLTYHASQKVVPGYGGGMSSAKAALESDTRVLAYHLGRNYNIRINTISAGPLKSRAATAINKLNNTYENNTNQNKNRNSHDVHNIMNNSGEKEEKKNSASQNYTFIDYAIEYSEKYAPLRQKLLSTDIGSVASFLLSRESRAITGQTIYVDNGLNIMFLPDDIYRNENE
As to the kind of experiment: PfFabI enzyme inhibition assay. It is filed as biochemical, P. falciparum.

The target of series [4] is Leishmania topoisomerase IB enzyme. The note with it: read-out: EC50 Leishmania topoisomerase IB; ref [4]; cited from earlier work.
The target in series [5] is T3, PfFabZ (Plasmodium falciparum, UniProt Q965D7).
T3 sequence (Q965D7 19-230): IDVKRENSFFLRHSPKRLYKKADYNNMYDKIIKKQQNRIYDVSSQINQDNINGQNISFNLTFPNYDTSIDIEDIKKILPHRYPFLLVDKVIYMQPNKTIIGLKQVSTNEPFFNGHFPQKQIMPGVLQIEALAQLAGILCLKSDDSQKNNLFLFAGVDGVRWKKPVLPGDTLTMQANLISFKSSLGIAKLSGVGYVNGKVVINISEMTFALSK
The series is described as follows: PfFabZ enzyme inhibition assay. It is filed as biochemical, P. falciparum.

The target of series [6] is PfFAS-II enzymes PfFabI, PfFabZ, PfFabG. As to the kind of experiment: PfFAS-II enzyme inhibition, range over PfFabI, PfFabZ and PfFabG. The note with it: range over the three enzymes. It counts as biochemical, P. falciparum.
A further series concerns Huh7 cells. The series is described as follows: Host cell viability of Huh7 cells. The note with it: Alamar Blue; up to the highest test concentrations. It counts as cell-based, human.
Series [7] addresses T3, PfFabZ. The following applies: values marked **, ref [3] (table footnote), [5], cited from earlier work.
Series [8] has as its target T2, PfFabI. The following applies: values marked **, ref [3] (table footnote), [5], cited from earlier work.
Series [9] concerns BS P. falciparum K1. The following applies: K1 strain; values marked **; ref [3] (table footnote), [5]; cited from earlier work.
In another series the test system is zebrafish larvae. As to the kind of experiment: General toxicity in zebrafish larvae. The note with it: treated 3 to 6 dpf, MTC at 6 dpf.
The subject of series [10] is BS P. falciparum K1. The series is described as follows: Blood stage antiplasmodial activity, 3H-hypoxanthine method. It counts as cell-based. The following applies: Plasmodium falciparum, K1, read-out: IC50 BS P. falciparum.
In series [11] the test system is LS forms of Plasmodium yoelii. The following applies: ref [5], cited from earlier work.
For series [12], the target named is T1, PfFabG. The note with it: values marked **; ref [3] (table footnote), [5]; cited from earlier work.
[13] abbreviates: rat skeletal myoblasts, values marked *, ref [2].

By EC50 is commonly meant the concentration needed to bring the measured effect to its halfway point. A word on the IC50: it is the concentration that gives 50% inhibition.

≈ marks a conversion by molar mass, not a printed value. Where “and” joins values, the source holds several entries; their conditions need not be identical. Identical values can stand only once. Entries after “also recorded” stand apart in the source; their conditions may differ. Like-named read-outs stand apart in the source and are kept apart here. Marks after values point to notes of the source that are not given here.

As for `CCCCCCCCCCCCCCCC#CC(=O)O` [2-ODA, 2-octadecynoic acid], in the series with LS P. berghei, the “Effect on P. berghei infection of Huh7 cells” value was “greatly impaired infection”. Besides, at PfFabG [1], the “IC50 PfFabG” value turned out to be 0.80 µg/mL (≈ 2.85 µM). Moreover, the “IC50 L6 cell toxicity” value in the series on L6 cells (setting [13]) is 5.6* μg/ml. Moreover, the “Critical micelle concentration (CMC)” value in [2] is 50 µg/mL. Besides, the EC50 was 11 µM in the series with Leishmania donovani and 5 µM in series [4]. Also, in the series with zebrafish larvae liver (3 days of exposure), the “Hepatotoxic effects / liver phenotype at the MTC” value is given as “non-hepatotoxic; also recorded: normal liver”. Further, the “IC50 PfFabI” value against PfFabI [3] was determined as 0.30 µg/mL (≈ 1.07 µM). In addition, at PfFabZ [5], the “IC50 PfFabZ” value is 0.28 µg/mL (≈ 0.998 µM). Moreover, the “IC50 values against PfFabI, PfFabZ and PfFabG (range)” value in series [6] fell in the range of 0.28 to 0.80 µg/mL. In addition, in the series with Huh7 cells, the “Effect on cell viability of Huh7 host cells” value is listed as “no apparent effects on cell viability”.
Take `COc1cc([C@@H]2c3cc4c(cc3[C@H](O)[C@H]3COC(=O)[C@H]23)OCO4)cc(OC)c1OC` [Podophyllotoxin, reference compound]: in the series with L6 cells (setting [13]), the “IC50 L6 cell toxicity” value was 0.02^e,* μg/ml.
Consider `CC(=O)Nc1ccc(O)cc1` [paracetamol, reference compound], for which the “Hepatotoxic effects / liver phenotype” value with zebrafish larvae liver (3 days of exposure, 300 μM, positive control) was “smaller-sized liver”.
`CCCCCCCCCCCCCCCC(=O)O` [PA, palmitic acid, reference compound]: the “LS activity at the highest test concentration” value with LS P. berghei (25 μg/ml) is listed as “devoid of any LS activity”. Also, in the series with L6 cells, the “IC50 L6 cell toxicity” value was 52.7** μg/ml. For the same molecule, in the series on zebrafish larvae liver (3 days of exposure, 700 μM = 179.2 μg/ml), the “Hepatotoxic effects / liver phenotype” value is listed as “no hepatotoxic effects; also recorded: normal liver”. The IC50 at PfFabZ [7] (read-out: IC50 PfFabZ) and at PfFabI [8] (read-out: IC50 PfFabI) was over 390 µM each time. Also, in the series on BS P. falciparum K1 [9], the “IC50 BS P. falciparum” value is 3.8** μg/ml.
In the case of `CCCCCCCCCCCC#CC(=O)O` [2-TDA, 2-tetradecynoic acid], the “Effect on P. berghei infection of Huh7 cells” value in the series on LS P. berghei is given as “greatly impaired infection”. The “IC50 PfFabG” value on PfFabG [1] stood at 5.5 µg/mL (≈ 24.5 µM). The “IC50 L6 cell toxicity” value in the series with L6 cells (setting [13]) is given as 9.2* μg/ml. In addition, the “Maximum-tolerated concentration (MTC)” value in the series with zebrafish larvae amounted to 0.27 µg/mL. Besides, the “Hepatotoxic effects / liver phenotype at the MTC” value in the series on zebrafish larvae liver (3 days of exposure) was “induced liver toxicity; also recorded: round-shaped liver with reduced fluorescence”. The “Hepatotoxic effects / liver phenotype” value in the series with zebrafish larvae liver (1.0 μM = 0.22 μg/ml, below the MTC) was “did not induce any apparent signs of liver toxicity”. The half-maximal effective concentration (EC50) in series [4] was 68 µM. Further, at PfFabZ [5], the “IC50 PfFabZ” value turned out to be 3.5 µg/mL (≈ 15.6 µM). Besides, the concentration for half-maximal inhibition (IC50) in the series on BS P. falciparum K1 [10] was found to be 27.3 µg/mL (≈ 122 µM). Further, the “Effect on cell viability of Huh7 host cells” value with Huh7 cells is on record as “no apparent effects on cell viability”.
`CCN(CC)CCCC(C)Nc1ccnc2cc(Cl)ccc12` (stereo not drawn) [Chloroquine, reference compound]: the 50% inhibitory concentration (IC50) in the series on BS P. falciparum K1 [10] was 0.117 µg/mL (≈ 0.366 µM).
2-hexadecynoic acid [2-HDA]: the results for the “IC50 LS P. yoelii” value in series [11] (assessed by flow cytometry) and in series [11] (assessed by immunofluorescence activity) were 15.3 µg/mL and 4.88 µg/mL, respectively. Besides, at PfFabG [12], the “IC50 PfFabG” value is recorded as 3.5** μg/ml. Further, the “IC50 L6 cell toxicity” value in the series on L6 cells was 85.9** μg/ml. Also, the “Critical micelle concentration (CMC)” value in series [2] is over 90 µg/mL. In addition, the 50% effective concentration (EC50) with Leishmania donovani is 17.8 µM; in series [4], 28 µM. The “Maximum-tolerated concentration (MTC)” value with zebrafish larvae is 0.20 μg/ml and 0.8 μM. In addition, the “Hepatotoxic effects / liver phenotype at the MTC” value with zebrafish larvae liver (3 days of exposure) is recorded as “non-hepatotoxic; also recorded: normal liver”. Moreover, at PfFabZ [7], the “IC50 PfFabZ” value is reported as 0.58** μg/ml. For the same molecule, the “IC50 PfFabI” value at PfFabI [8] is reported as 0.38** μg/ml. The “IC50 BS P. falciparum” value in the series on BS P. falciparum K1 [9] is on record as 10.4** μg/ml.
